This note sets out measurements from patent publication US9271946B2, “Use of a RAR antagonist or inverse agonist for the treatment of chemotherapy and/or radiation therapy side effects” (IO Therapeutics, Inc., priority 2006, dated 2016).

Test [1] relates to CPM-induced neutropenic male BDF1 mice. The test can be described thus: mono-therapy and combination therapy on neutrophil recovery in CPM-induced neutropenic mice (Example 4). The class given is in vivo, mouse. As for the experimental part:
VTP 194310 DMSO stock solution was made by weighing out VTP 194310 and dissolved in DMSO (25 mg/1.33 ml DMSO). This stock solution was then mixed with Vehicle (39.2 ml Corn Oil+0.8 ml DMSO).
The 3.0 mg/kg VTP194310 solution was made by mixing 39.2 ml Corn Oil+0.8 ml VTP 194310 DMSO Stock.
The 1.0 mg/kg VTP194310 solution was made by diluting the VTP194310 DMSO Stock 1:3 with DMSO (e.g. 1 ml DMSO+0.5 ml 4310 Stock), and then combining 39.2 ml Corn Oil+0.8 ml of the diluted VTP194310 Stock.
The 1 and 10 μg/kg PEG-G-CSF solutions were made by diluting 6 mg/ml stock with PBS.
Male BDF1 mice (C57Bl×DBA2), 7-8 weeks old, DOB: 1 Jun. 2006) were used in this experiment.
35 μl of blood (via the submandibular vein) were collected according to the scheduled time points or until the full recovery of blood cells and platelets. The blood samples were analyzed after 1:5 dilution with PBS saline containing 2% BSA (Fraction V) and 0.2 mM EDTA on the Hematology Analyzer Cell-DYN 3700 (Abbott Diagnostics).
Each group of mice were treated with vehicle, VTP 194310 at 3 mg/kg, PEG-G-CSF at 1 or 10 μg/kg, and CPM at 150 mg/kg. The mean numbers of total white blood cells (WBC), neutrophils, lymphocytes, red blood cells (RBC) and platelets and standard error (SE) for data obtained for each treated group are shown in FIG. 4. […] Combination treatment with VTP 194310 and PEG-G-CSF further increased recovery.

The test system of test [2] is S. aureus 29213 infection in leukopenic female BDF1 mice. Description: protective effect against S. aureus infection in leukopenic mice (Example 3). The class given is in vivo, mouse. On the procedure:
S. aureus 29213 obtained from American Type Culture Collection (ATCC) (Rockville, Md.) was used to induce infections in leukopenic female BDF1 mice (20-22 g). S. aureus were cultured at 37° C. in Tryptic Soy broth until the mid-logarithmic phase of growth (optical density at 600 nm=0.3), harvested, and washed with PBS. The number of bacteria was enumerated by serial dilution with PBS, plating onto blood agar, and counting colony-forming units (CFU) 48 hours after incubation at 37° C. The suspension was adjusted to […].
Mice were rendered leukopenic by i.p. injection of CPM at 200 mg/kg. A lethal dose (LD) of S. aureus was determined by intravenous injections of 1×10^3 to 1×10^8 CFU to groups of 10 mice 4 days after CPM treatment. 10-day survivors were enumerated, and the LD95 of S. aureus was calculated by Probit analysis. Treatment with VTP 194310 (at 1 mg/kg) was started one day before CPM and continued for 3 more days. Four days after CPM, the animals were infected intravenously with 4.1 and 2.5×10^6 CFU of S. aureus in 200 μl of PBS. Surviving animals were recorded daily for 14 days after the challenge. […] All experiments were performed in compliance with relevant laws and institutional guidelines, and were approved by the Animal Care and Use Committee.

A further test has as its system RAR. The test can be described thus: transactivation assays. The class given is cell-based. An excerpt:
An assay that can be used to determine the agonist activity in the RARα, RARβ and RARγ receptor subtypes is described in Feigner, P. L., and Holm, M., FOCUS, 11:2, 21+ (1989) and U.S. Pat. Nos. 5,455,265 and 7,166,726, all of which are incorporated herein by reference in their entirety.

In test [3] the test system is 5-FU-induced neutropenic male BDF1 mice. The test can be described thus: monotherapy and combination therapy on neutrophil recovery in 5-FU-induced neutropenic mice (Example 5). The class given is in vivo, mouse. On the procedure: VTP194310 DMSO Stock solution was made by weighing out VTP194310 and dissolving it in DMSO (25 mg/1.33 ml DMSO).
The Vehicle solution was made by mixing 39.2 ml Corn Oil+0.8 ml DMSO.
The 3.0 mg/kg VTP194310 solution was made by mixing 39.2 ml Corn Oil+0.8 ml VTP 194310 DMSO Stock solution.
The 150 mg/kg 5-FU solution was made by weighing out 187.5 mg 5-FU and mixing it with 10 g saline.
The 10 μg/kg PEG-G-CSF solution was made by diluting 6 mg/ml stock with PBS.
Male BDF1 mice (C57Bl×DBA2), 9 weeks old, DOB: 26 Jun. 2006) were used in this experiment.
Each group of mice were treated with 150 mg/kg 5-FU intravenously on Day 0, vehicle or VTP194310 orally by gavage at 3 mg/kg/day on Days 2 to 4, and/or subcutaneously with PEG-G-CSF at 10 μg/kg on Days 5, 6, or 7 according to the regimens listed in the table. The mean numbers of total white blood cells (WBC), neutrophils, lymphocytes, red blood cells (RBC) and platelets and standard error (SE) of data obtained for each treated group are shown in FIG. 6.

The next test has as its target T1, RARα (Homo sapiens, UniProt P10276).
T1 sequence (P10276 1-462): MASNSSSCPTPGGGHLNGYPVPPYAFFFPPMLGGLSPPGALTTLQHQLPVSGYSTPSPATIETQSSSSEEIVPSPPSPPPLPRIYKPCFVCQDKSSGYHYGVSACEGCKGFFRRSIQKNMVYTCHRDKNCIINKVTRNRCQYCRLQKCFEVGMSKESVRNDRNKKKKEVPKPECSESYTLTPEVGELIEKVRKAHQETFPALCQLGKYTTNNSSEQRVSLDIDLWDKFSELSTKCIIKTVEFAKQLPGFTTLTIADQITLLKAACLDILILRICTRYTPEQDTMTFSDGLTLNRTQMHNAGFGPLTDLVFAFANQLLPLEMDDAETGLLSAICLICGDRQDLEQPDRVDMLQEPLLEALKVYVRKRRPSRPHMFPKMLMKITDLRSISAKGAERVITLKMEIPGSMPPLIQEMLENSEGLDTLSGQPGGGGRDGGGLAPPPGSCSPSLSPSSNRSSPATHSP
The test can be described thus: binding to RARα.

A word on the pKi: it is the negative decadic logarithm of the Ki, by convention in mol/L. A higher pKi goes with a low Ki.

pKi: −log10 of the molar value.

With `CCc1ccc(C2=CC(C)(C)Sc3ccc(C#Cc4ccc(C(=O)O)cc4)cc32)cc1` [VTP 194310, 4-[[4-(4-ethylphenyl)-2,2-dimethyl-(2H)-thiochromen-6-yl]-ethynyl]-benzoic acid], the “effectiveness in enhancing neutrophil recovery compared to PEG-G-CSF at 10 μg/kg” value in test [1] (CPM-induced mouse model) is recorded as “similarly effective”. Moreover, the “neutrophil recovery relative to control” value in test [1] (monotherapy, CPM 150 mg/kg Day 0, VTP 194310 1 or 3 mg/kg/day oral Days −1 to 1, PEG-G-CSF 1 or 10 μg/kg s.c. Day 2) is on record as “enhanced neutrophil recovery”. In addition, the “protective effect against S. aureus infection compared to controls” value in test [2] (Logrank p=0.0031 (4.1×10^6 CFU), p<0.0001 (2.5×10^6 CFU)) is given as “very significant protective effect”. The mice alive in test [2] (day 10, each of the doses of S. aureus (4.1 and 2.5×10^6 CFU), 1 mg/kg days −1 to 2) turned out to be 83%; in test [2] (day 14, 2.5×10^6 CFU S. aureus) it was 67%; in test [2] (day 14, higher dose of bacteria (4.1×10^6 CFU)), 42%. Also, in the test on RAR (agonist activity), the “activity in transactivation assays” value is on record as “no activity”. Also, in the test with RAR (antagonism), the “gene transcriptional activity induced by ATRA and other RAR agonists” value is recorded as “blocks the gene transcriptional activity”. Also, the “effectiveness in enhancing neutrophil recovery compared to PEG-G-CSF” value in test [3] (3 mg/kg/day Days 2 to 4 vs PEG-G-CSF 10 μg/kg Days 5, 6, or 7) is “more effective than PEG-G-CSF”. Further, the “recovery of neutrophils relative to control” value in test [3] (monotherapy, 5-FU 150 mg/kg i.v. Day 0, VTP 194310 3 mg/kg/day oral Days 2 to 4, PEG-G-CSF 10 μg/kg s.c. Day 5, 6, or 7) is reported as “improved the recovery of neutrophils”. The pKi at RARα is 8.52.
